Reference: publication PMC5838106, “Cathelicidin promotes inflammation by enabling binding of self-RNA to cell surface scavenger receptors” (Scientific Reports, 2018)
Where no end group is shown, it is not given here.

Tests used:
[1] = tested on: THP1 cells; experiment: U1 RNA co-association with early endosome (EEA1) in THP1; assay type: cell-based, human; settings: PMA-treated THP1, 37 °C, 4 hours
Protocol: NHEKs were grown on 8-well chamber slides (Thermofisher Scientific). After indicated treatments, cells were fixed in 4% paraformaldehyde (PFA) (Thermofisher Scientific) for 10 minutes and blocked with 3% bovine serum albumin, 0.2 M Glycine (Sigma) with or without 1 mg/mL saponin (Sigma) prior to incubating with primary antibodies followed by appropriate 488- or 568-coupled secondary antibodies, or 488-streptavidin conjugate. Nuclei were counterstained with DAPI. All images were taken with an Olympus BX41 microscope (widefield), Zeiss LSM510 confocal microscope, or Nikon A1R Confocal STORM microscope as indicated.
Figure S2. a) PMA-treated THP1 cultured at 37 °C for 4 hours with U1 RNA and cathelicidin peptides. Early endosomal antigen 1 (EEA1) is stained red, U1 RNA is stained green and nuclei were visualized with DAPI (blue). Scale bar represents 10 μm. b) IL-6 mRNA in NHEKs cultured with FPR1 inhibitor Boc-MLF (1 µM) or FPR2 inhibitor WRW4 (1 µM) for 1 hour, treated with LL37 (2.5 µM) and U1 RNA (2.5 µg/mL) for a further 6 hours. (n = 3). c) IL-6 mRNA in NHEKs cultured with G-protein coupled receptor inhibitor pertussis toxin (0.5 µg/mL) for 1 hour, treated with LL37 (2.5 µM) and U1 RNA (2.5 µg/mL) for a further 6 hours. (n = 3). […]

[2] = target: T1, SR-B1 (Homo sapiens, UniProt Q8WTV0); experiment: Proximity ligation assay for SR-B1 and U1 RNA; assay type: cell-based; settings: NHEKs, peptide 2.5 μM 10 minutes, biotinylated U1 RNA 2.5 μg/mL, 4 °C, 1 hour
T1 construct: endogenous in cells; host or cells: NHEK (primary neonatal human epidermal keratinocytes)
T1 sequence (Q8WTV0 1-509 isoform Q8WTV0-2): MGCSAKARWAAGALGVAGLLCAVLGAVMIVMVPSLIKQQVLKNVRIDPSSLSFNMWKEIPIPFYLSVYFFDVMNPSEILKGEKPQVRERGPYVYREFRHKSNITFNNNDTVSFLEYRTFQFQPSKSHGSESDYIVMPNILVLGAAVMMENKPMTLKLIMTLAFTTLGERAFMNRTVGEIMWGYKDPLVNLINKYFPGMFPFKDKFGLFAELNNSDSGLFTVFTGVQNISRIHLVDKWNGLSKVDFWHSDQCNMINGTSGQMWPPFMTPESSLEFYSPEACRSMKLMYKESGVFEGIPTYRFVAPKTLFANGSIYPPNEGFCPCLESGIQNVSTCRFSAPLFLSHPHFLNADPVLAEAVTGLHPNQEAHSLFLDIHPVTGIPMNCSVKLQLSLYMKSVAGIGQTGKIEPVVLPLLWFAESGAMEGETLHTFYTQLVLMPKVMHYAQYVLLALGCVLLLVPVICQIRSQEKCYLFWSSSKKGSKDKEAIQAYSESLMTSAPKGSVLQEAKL
Protocol: Figure 3 Cathelicidin enables dsRNA to associate with scavenger receptors. (a) Proximity ligation assay for SR-B1 and U1 RNA. NHEKs were cultured with various cathelicidin peptides (2.5 μM) for 10 minutes, then with biotinylated U1 RNA (2.5 μg/mL) at 4 °C for 1 hour before physical proximity of SR-B1 and U1 RNA was determined using a fluorescence-based PLA that produces a red fluorescent signal. Nuclei (blue) are counterstained with DAPI. Scale bar represents 10 μm. (b) Signal count of (a) in 5 visual fields. (c) Proximity ligation assay as in (a) but reaction is detecting proximity of LL37 and SR-A6. Scale bar represents 100 μm. (d) Signal count of proximity ligation assay performed as in (a), but between U1 RNA and the indicated scavenger receptors, each count is PLA complexes observed in 5 visual fields. (e) Skin sections from healthy subject (control), or lesional skin from a psoriasis patient (Psoriasis) were fixed and PLA performed for LL37 and SR-B1. […]
NHEKs seeded into 8 chamber slides (Thermo Fisher Scientific) were incubated with various combination of U1 RNA, poly(I:C), cathelicidin peptides, and fucoidan for 1 hour at 4 °C allowing binding, but not internalization. […] Fluorescent PLA signals were evaluated using fluorescence microscopy (described above). Signals are counted by Duolink ImageTool software version 1.0.1.2 (Sigma-aldrich).

Row | Substance | co-association of U1 RNA with the early endosome [1] | close association between U1 RNA and SR-B1 (PLA, <40 nm) [2]
1 | LL37 | induced partial co-association with the early endosome | enabled close association
2 | LLGDFFRKSKEKIGKEFKRIVQRIKDFLRNLVPR [LL34] | induced partial co-association with the early endosome | enabled close association
